# From patent US8604019B2, “Compounds for the treatment and prophylaxis of respiratory syncytial virus disease” (Hoffman-La Roche Inc., priority 2011, dated 2013)
# Columns and labels:
# [1] = system: RSV Long strain (ATCC, catalog number: VR-26); test: Viral cytopathic effect (CPE) assay, anti-RSV activity; type: cell-based; settings: human respiratory syncytial virus, 144 h, 6 days, cell viability by Cell Counting kit-8
# Protocol: Viral cytopathic effect (CPE) assay: To measure anti-RSV activity of compounds, 96-well plates are seeded with 6×10^3 cells per well in Dulbecco's modified Eagle's medium (DMEM) containing 10% fetal bovine serum (FBS). Cells are infected the next day with sufficient RSV Long strain (ATCC, catalog number: VR-26) to produce an approximately 80-90% cytopathic effect after 6 days, in the presence of serial half-log diluted compound in a total volume of 200 μL per well. The viability of cells is assessed after 6 days using Cell Counting kit-8 (Dojindo Molecular Technologies). The absorbance at 450 nm and referenced at 630 nm is measured to determine 50% effective concentration (EC50).
# [2] = system: RSV; settings: Phase III clinical trials; cited from earlier work
# [3] = system: established RSV infection; settings: in vivo; cited from earlier work
# [4] = system: RSV infection; settings: intramuscularly at 15 mg/kg once a month for the duration of RSV season, selected infants; cited from earlier work
Compound,EC50 [1],further results
"Cc1cc2nc(N3CCNc4ccccc4C3)nc(NCCCN)c2s1 [Example 1-3, N-[6-Methyl-2-(1,2,3,5-tetrahydro-4H-1,4-benzodiazepin-4-yl)thieno[3,2-d]pyrimidin-4-yl]propane-1,3-diamine]",3.12 µM,
"NCCCNc1nc(N2CCNc3ccccc3C2)nc2ccsc12 [Example 1-4, N-[2-(1,2,3,5-Tetrahydro-4H-1,4-benzodiazepin-4-yl)thieno[3,2-d]pyrimidin-4-yl]propane-1,3-diamine]",9.47 µM,
"NCCCNc1nc(N2CCOc3ccccc3C2)nc2ccsc12 [Example 1-6, N-[2-(2,3-Dihydro-1,4-benzoxazepin-4(5H)-yl)thieno[3,2-d]pyrimidin-4-yl]propane-1,3-diamine]",2.21 µM,
"NCCCNc1nc(N2CCC(F)(F)c3ccccc3C2)nc2ccsc12 [Example 1-7, N-[2-(5,5-Difluoro-1,3,4,5-tetrahydro-2H-2-benzazepin-2-yl)thieno[3,2-d]pyrimidin-4-yl]propane-1,3-diamine]",0.669 µM,
"NCCCNc1nc(N2CCCc3ccccc3C2)nc2ccsc12 [Example 1-9, N-[2-(1,3,4,5-Tetrahydro-2H-2-benzazepin-2-yl)thieno[3,2-d]pyrimidin-4-yl]propane-1,3-diamine]",0.667 µM,
"Cc1cc2nc(N3CCSc4ccccc4C3)nc(NCCCN)c2s1 [Example 1-10, N-[2-(2,3-Dihydro-1,4-benzothiazepin-4(5H)-yl)-6-methylthieno[3,2-d]pyrimidin-4-yl]propane-1,3-diamine]",0.735 µM,
"Cc1cc2nc(N3CCOc4ccccc4C3)nc(NCCCN)c2s1 [Example 1-11, N-[2-(2,3-Dihydro-1,4-benzoxazepin-4(5H)-yl)-6-methylthieno[3,2-d]pyrimidin-4-yl]propane-1,3-diamine]",1.35 µM,
"Cc1cc2nc(N3CCC(F)(F)c4ccccc4C3)nc(NCCCN)c2s1 [Example 1-12, N-[2-(5,5-Difluoro-1,3,4,5-tetrahydro-2H-2-benzazepin-2-yl)-6-methylthieno[3,2-d]pyrimidin-4-yl]propane-1,3-diamine]",1.01 µM,
"Cc1cc2nc(N3CCCc4ccccc4C3)nc(NCCCN)c2s1 [Example 1-13, N-[6-Methyl-2-(1,3,4,5-tetrahydro-2H-2-benzazepin-2-yl)thieno[3,2-d]pyrimidin-4-yl]propane-1,3-diamine]",1.44 µM,
"NCC1(Nc2nc(N3CCS(=O)(=O)c4ccccc4C3)nc3ccsc23)COC1 [Example 2-2, N-[3-(aminomethyl)oxetan-3-yl]-2-(1,1-dioxido-2,3-dihydro-1,4-benzothiazepin-4(5H)-yl)thieno[3,2-d]pyrimidin-4-amine]",0.897 µM,
"Cc1cc2nc(N3CC[S+]([O-])c4ccccc4C3)nc(NCC(F)CN)c2s1 (centres unmarked) [Example 3-2, 2-Fluoro-N-[6-methyl-2-(1-oxido-2,3-dihydro-1,4-benzothiazepin-4(5H)-yl)thieno[3,2-d]pyrimidin-4-yl]propane-1,3-diamine]",0.468 µM,
"Cc1cc2nc(N3CC[S+]([O-])c4ccccc4C3)nc(NC3CCNC3)c2s1 (centres unmarked) [Example 4-2, 6-Methyl-2-(1-oxido-2,3-dihydro-1,4-benzothiazepin-4(5H)-yl)-N-(pyrrolidin-3-yl)thieno[3,2-d]pyrimidin-4-amine]",0.676 µM,
motavizumab: A newer version monoclonal antibody designed as potential replacement of palivizumab,,benefit over palivizumab [2]: failed to show additional benefit over palivizumab
palivizumab: a humanized monoclonal antibody against RSV fusion (F) protein approved for prophylaxis in high-risk infants,,efficacy in treatment of established RSV infection [3]: not effective; reduction of hospitalization rate caused by RSV infection [4]: 45-55%

# The next lines start with results.
EC50 [1],Compound,further results
0.03 µM,"Cc1cc2nc(N3CC[S+]([O-])c4ccccc4C3)nc(NC3CNC[C@H]3F)c2s1 (mixture of isomers) [Example 4-1, N—[trans-(±)-4-Fluoropyrrolidin-3-yl]-6-methyl-2-(1-oxido-2,3-dihydro-1,4-benzothiazepin-4(5H)-yl)thieno[3,2-d]pyrimidin-4-amine]",
0.215 µM,"NCC(F)(F)CNc1nc(N2CCS(=O)(=O)c3ccccc3C2)nc2ccsc12 [Example 1-1, N-[2-(1,1-Dioxido-2,3-dihydro-1,4-benzothiazepin-4(5H)-yl)thieno[3,2-d]pyrimidin-4-yl]-2,2-difluoropropane-1,3-diamine]",
0.255 µM,"NCCCNc1nc(N2CC[S+]([O-])c3ccccc3C2)nc2ccsc12 (centres unmarked) [Example 1-2, N-[2-(1-Oxido-2,3-dihydro-1,4-benzothiazepin-4(5H)-yl)thieno[3,2-d]pyrimidin-4-yl]propane-1,3-diamine]",
0.384 µM,"NCCCNc1nc(N2CCSc3ccccc3C2)nc2ccsc12 [Example 1-5, N-[2-(2,3-Dihydro-1,4-benzothiazepin-4(5H)-yl)thieno[3,2-d]pyrimidin-4-yl]propane-1,3-diamine]",
0.022 µM,"NCC1(CNc2nc(N3CCC(F)(F)c4ccccc4C3)nc3ccsc23)COC1 [Example 1-8, N-{[3-(Aminomethyl)oxetan-3-yl]methyl}-2-(5,5-difluoro-1,3,4,5-tetrahydro-2H-2-benzazepin-2-yl)thieno[3,2-d]pyrimidin-4-amine]",
0.073 µM,"Cc1cc2nc(N3CCS(=O)(=O)c4ccccc4C3)nc(NCCCN)c2s1 [Example 1-14, N-[2-(1,1-Dioxido-2,3-dihydro-1,4-benzothiazepin-4(5H)-yl)-6-methylthieno[3,2-d]pyrimidin-4-yl]propane-1,3-diamine]",
0.076 µM,"NCCCNc1nc(N2CCS(=O)(=O)c3ccccc3C2)nc2ccsc12 [Example 1-15, N-[2-(1,1-Dioxido-2,3-dihydro-1,4-benzothiazepin-4(5H)-yl)thieno[3,2-d]pyrimidin-4-yl]propane-1,3-diamine]",
0.007 µM,"NC1(CNc2nc(N3CCS(=O)(=O)c4ccccc4C3)nc3ccsc23)COC1 [Example 2-1, N-[(3-Aminooxetan-3-yl)methyl]-2-(1,1-dioxido-2,3-dihydro-1,4-benzothiazepin-4(5H)-yl)thieno[3,2-d]pyrimidin-4-amine]",
0.068 µM,"NC1(CNc2nc(N3CC[S@@+]([O-])c4ccccc4C3)nc3ccsc23)COC1 [Example 2-3, N-[(3-Aminooxetan-3-yl)methyl]-2-[(1R)-1-oxido-2,3-dihydro-1,4-benzothiazepin-4(5H)-yl]thieno[3,2-d]pyrimidin-4-amine]",
0.003 µM,"NC1(CNc2nc(N3CC[S@+]([O-])c4ccccc4C3)nc3ccsc23)COC1 [Example 2-4, N-[(3-aminooxetan-3-yl)methyl]-2-[(1S)-1-oxido-2,3-dihydro-1,4-benzothiazepin-4(5H)-yl]thieno[3,2-d]pyrimidin-4-amine]",
0.026 µM,"Cc1cc2nc(N3CC[S+]([O-])c4ccccc4C3)nc(NCC3(N)COC3)c2s1 (centres unmarked) [Example 3-1, N-[(3-Aminooxetan-3-yl)methyl]-6-methyl-2-(1-oxido-2,3-dihydro-1,4-benzothiazepin-4(5H)-yl)thieno[3,2-d]pyrimidin-4-amine]",
0.086 µM,"Cc1cc2nc(N3CC[S+]([O-])c4ccccc4C3)nc(NCCN)c2s1 (centres unmarked) [Example 3-3, N-[6-Methyl-2-(1-oxido-2,3-dihydro-1,4-benzothiazepin-4(5H)-yl)thieno[3,2-d]pyrimidin-4-yl]ethane-1,2-diamine]",
0.006 µM,"Cc1cc2nc(N3CC[S+]([O-])c4ccccc4C3)nc(NCC3(CN)COC3)c2s1 (centres unmarked) [Example 3-4, N-{[3-(Aminomethyl)oxetan-3-yl]methyl}-6-methyl-2-(1-oxido-2,3-dihydro-1,4-benzothiazepin-4(5H)-yl)thieno[3,2-d]pyrimidin-4-amine]",
0.232 µM,"Cc1cc2nc(N3CC[S+]([O-])c4ccccc4C3)nc(NCCCN)c2s1 (centres unmarked) [Example 3-5, N-[6-Methyl-2-(1-oxido-2,3-dihydro-1,4-benzothiazepin-4(5H)-yl)thieno[3,2-d]pyrimidin-4-yl]propane-1,3-diamine]",
